Experimental findings from patent US20240417411A1, “COMPOUNDS AND METHODS FOR TREATMENT OF VIRAL INFECTIONS” (priority 2023, published 2024) are described below.

The subject of one data set is RSV-Luc5. As to the kind of experiment: microbe, parasite or virus in culture. It counts as cell-based. As to conditions: human respiratory syncytial virus, NHBE, 72 h, read-out: RSV NHBE EC50 (nM).
The test system of data set [1] is Caco-2 cells (clone C2BBe1). The conditions noted are these: human, Caco-2.
A short description of data set [2]: in vitro. It counts as in vitro ADME. As to conditions: human, s9, pH 7.4. In short, it runs like this: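 Test compounds at 2 μM final were incubated in a GI S9 reaction mixture, reactions being started by substrate addition. Diluted supernatants were quantified by LC/MS on a Q-Exactive using analyte/internal standard peak area ratios, with 0.1% formic acid water/acetonitrile gradient elution and 5 ppm mass tolerance.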

The nature of data set [3]: in vitro. It is filed as cell-based. As to conditions: human. The method, boiled down: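 Uninfected MT4 cells cultured with compound 4–5 days at 37 °C, equilibrated to 25 °C, and viability read by CellTiter-Glo luminescence. Untreated and 2 μM puromycin-treated cells defined 100% and 0% viability; CC50, the concentration reducing viability by 50%, from non-linear regression.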

The next data set relates to SARS-CoV2-NLuc. Description: microbe, parasite or virus in culture. It counts as cell-based, SARS Coronavirus 2. The conditions noted are these: Severe acute respiratory syndrome coronavirus 2, 48 h, read-out: SARS-CoV2 EC50 (nM).

Like-named read-outs stand apart in the source and are kept apart here.

As to `CCOC(=O)OC[C@H]1O[C@@](C#N)(c2ccc3c(N)ncnn23)[C@@H]2OC(=O)CCCC(=O)O[C@@H]21` [Compound C12, ((7aR,8R,10R,10aR)-10-(4-aminopyrrolo[2,1-f][1,2,4]triazin-7-yl)-10-cyano-2,6-dioxooctahydro-2H-furo[3,4-b][1,4]dioxonin-8-yl)methyl ethyl carbonate], the “Human Plasma T1/2” value came out at 3 min. In addition, the EC50 (usually the concentration giving half of the maximal effect) with RSV-Luc5 amounted to 7940 nM. For the same compound, in data set [1], the “Caco2 A to B” value was found to be 1.94 and the “Caco2 B to A” value came out at 5.31. Moreover, in the data set “in vitro [2]”, the half-life (usually how long it takes for the measured level to halve) at 2 μM is 0.621 min. Further, the 50% cytotoxic concentration (CC50) (in general, the concentration that lowers cell viability or growth by half) in “in vitro [3]” was more than 50 µM. For the same compound, in the data set on SARS-CoV2-NLuc, the EC50 came out at 5880 nM.
As to `N#C[C@@]1(c2ccc3c(N)ncnn23)O[C@H](COC(=O)OC2CCOC2)[C@H]2OC(=O)CCCC(=O)O[C@H]21` (stereo partly drawn) [Compound C23, ((7aR,8R,10R,10aR)-10-(4-aminopyrrolo[2,1-f][1,2,4]triazin-7-yl)-10-cyano-2,6-dioxooctahydro-2H-furo[3,4-b][1,4]dioxonin-8-yl)methyl (tetrahydrofuran-3-yl) carbonate], in the data set with RSV-Luc5, the EC50 worked out at 19900 nM. In addition, in data set [1], the “Caco2 A to B” value was 0.66 and the “Caco2 B to A” value worked out at 4.38. Further, in “in vitro [2]”, the half-life at 2 μM was determined as 0.569 min. The compound further came in with a CC50 in the data set “in vitro [3]” of more than 50 µM. For the same compound, the “Human Plasma T1/2” value (2 μM) is on record as 3 min. Also, in the data set with SARS-CoV2-NLuc, the EC50 was 18400 nM.
As for `COC(=O)OC[C@H]1O[C@@](C#N)(c2ccc3c(N)ncnn23)[C@@H]2OC(=O)CCCC(=O)O[C@@H]21` [Compound C13, ((7aR,8R,10R,10aR)-10-(4-aminopyrrolo[2,1-f][1,2,4]triazin-7-yl)-10-cyano-2,6-dioxooctahydro-2H-furo[3,4-b][1,4]dioxonin-8-yl)methyl methyl carbonate], the results for the concentration for a half-maximal effect (EC50) in the data set with RSV-Luc5 and in the data set with SARS-CoV2-NLuc were 30000 nM and 4100 nM, respectively. Besides, the “Caco2 A to B” value in data set [1] worked out at 2.1. Moreover, the “Caco2 B to A” value in data set [1] is 5.18. In the data set “in vitro [2]”, this compound gave a half-life at 2 μM of 0.613 min. The compound also yielded a CC50 in the data set “in vitro [3]” of more than 50 µM. Moreover, under “2 μM”, the “Human Plasma T1/2” value amounted to 3 min.
Regarding `COC(C)(C)COC(=O)OC[C@H]1O[C@@](C#N)(c2ccc3c(N)ncnn23)[C@@H]2OC(=O)CCCC(=O)O[C@@H]21` [Compound C22, ((7aR,8R,10R,10aR)-10-(4-aminopyrrolo[2,1-f][1,2,4]triazin-7-yl)-10-cyano-2,6-dioxooctahydro-2H-furo[3,4-b][1,4]dioxonin-8-yl)methyl (2-methoxy-2-methylpropyl) carbonate], the EC50 in the data set with RSV-Luc5 was determined as 4850 nM. Moreover, in data set [1], the “Caco2 A to B” value is given as 0.88 and the “Caco2 B to A” value is on record as 3.46. The compound also yielded a half-life at 2 μM in “in vitro [2]” of 0.568 min. In addition, the half-maximal cytotoxic concentration (CC50) in “in vitro [3]” is more than 50 µM. Also, the “Human Plasma T1/2” value (2 μM) is reported as 3 min. Moreover, the EC50 in the data set on SARS-CoV2-NLuc came out at 5110 nM.
With `CC(C)OC(=O)OC[C@H]1O[C@@](C#N)(c2ccc3c(N)ncnn23)[C@@H]2OC(=O)CCC=CCCC(=O)O[C@@H]21` [Compound C9, ((10aR,11R,13R,13aR)-13-(4-aminopyrrolo[2,1-f][1,2,4]triazin-7-yl)-13-cyano-2,9-dioxo-2,3,4,7,8,9,10a,11,13,13a-decahydrofuro[3,4-b][1,4]dioxacyclododecin-11-yl)methyl isopropyl carbonate], in the data set on RSV-Luc5, the EC50 was 3050 nM. For the same compound, in data set [1], the “Caco2 A to B” value is 18.29 and the “Caco2 B to A” value came out at 17.94. This compound also came in with a half-life at 2 μM in “in vitro [2]” of 0.655 min. Further, the half-maximal cytotoxic concentration (CC50) in the data set “in vitro [3]” is more than 50 µM. Moreover, under “2 μM”, the “Human Plasma T1/2” value stood at 3 min. The EC50 in the data set on SARS-CoV2-NLuc was found to be 27500 nM.
On to `CC(C)OC(=O)OC[C@H]1O[C@@](C#N)(c2ccc3c(N)ncnn23)[C@@H]2OC(=O)CCOCCC(=O)O[C@@H]21` [Compound C8, ((9aR,10R,12R,12aR)-12-(4-aminopyrrolo[2,1-f][1,2,4]triazin-7-yl)-12-cyano-2,8-dioxooctahydro-2H,6H-furo[3,4-b][1,4,8]trioxacycloundecin-10-yl)methyl isopropyl carbonate], for which the EC50 in the data set on RSV-Luc5 is 3350 nM; in the data set with SARS-CoV2-NLuc, more than 50000 nM. Further, the “Caco2 A to B” value in data set [1] is recorded as 1.56. Further, in data set [1], the “Caco2 B to A” value turned out to be 10.63. The compound further showed a half-life at 2 μM in “in vitro [2]” of 0.687 min. For the same compound, in the data set “in vitro [3]”, the 50% cytotoxic concentration (CC50) is more than 50 µM. Moreover, under “2 μM”, the “Human Plasma T1/2” value came out at 3 min.
